According to publication PMC6602303, “Yeast ceramide synthases, Lag1 and Lac1, have distinct substrate specificity” (Journal of Cell Science, 2019):

Key:
Lag1 = biological target: T1, Lag1 (Saccharomyces cerevisiae, UniProt P38703); experiment: in vitro CerS assay, TLC fluorescence of NBD-ceramide; assay type: cell-free (lysate); conditions: labelled compound; 50 μM C26-CoA, 5 μM human ACBP1, 20 μM defatted BSA, 2 mM MgCl2, pH 7.2, 37°C; Δlac1Δsur2 lysate; read-out: apparent Km
T1 construct: native full-length protein in cryo-milled lysate of Δlac1Δsur2 yeast; with Ceramide synthase subunit LIP1
T1 sequence (P38703 1-411): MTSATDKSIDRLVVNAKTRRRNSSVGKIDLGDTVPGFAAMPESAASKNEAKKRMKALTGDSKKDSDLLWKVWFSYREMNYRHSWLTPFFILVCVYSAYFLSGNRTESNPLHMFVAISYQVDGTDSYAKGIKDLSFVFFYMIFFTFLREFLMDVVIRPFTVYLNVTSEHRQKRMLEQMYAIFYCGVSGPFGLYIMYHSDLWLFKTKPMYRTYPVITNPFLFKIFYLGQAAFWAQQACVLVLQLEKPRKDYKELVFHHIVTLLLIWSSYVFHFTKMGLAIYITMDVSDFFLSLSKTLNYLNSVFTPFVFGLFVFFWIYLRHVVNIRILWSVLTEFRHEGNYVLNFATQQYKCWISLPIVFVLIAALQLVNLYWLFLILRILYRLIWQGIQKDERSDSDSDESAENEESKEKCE
T1 sequence (Q03579 1-150 partner): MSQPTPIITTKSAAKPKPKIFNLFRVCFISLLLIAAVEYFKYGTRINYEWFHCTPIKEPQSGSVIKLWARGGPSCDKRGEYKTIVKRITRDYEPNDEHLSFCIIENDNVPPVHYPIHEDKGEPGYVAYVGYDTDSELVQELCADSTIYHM
Text: in vitro CerS assay, TLC fluorescence of NBD-ceramide on Lag1 | Lag1 (Δlac1Δsur2) has a higher affinity towards PHS than Lac1 (Δlag1Δsur2) | We next determined the Km of Lag1 or Lac1 towards DHS and PHS

Lac1 = biological target: T2, Lac1 (Saccharomyces cerevisiae, UniProt P28496); experiment: as above; assay type: cell-free; conditions: labelled compound; 50 μM C26-CoA, 5 μM human ACBP1, 20 μM defatted BSA, 2 mM MgCl2, pH 7.2, 37°C; Δlag1Δsur2 lysate; read-out: apparent Km
T2 construct: native full-length protein in cryo-milled lysate of Δlag1Δsur2 yeast; with Ceramide synthase subunit LIP1
T2 sequence (P28496 2-418): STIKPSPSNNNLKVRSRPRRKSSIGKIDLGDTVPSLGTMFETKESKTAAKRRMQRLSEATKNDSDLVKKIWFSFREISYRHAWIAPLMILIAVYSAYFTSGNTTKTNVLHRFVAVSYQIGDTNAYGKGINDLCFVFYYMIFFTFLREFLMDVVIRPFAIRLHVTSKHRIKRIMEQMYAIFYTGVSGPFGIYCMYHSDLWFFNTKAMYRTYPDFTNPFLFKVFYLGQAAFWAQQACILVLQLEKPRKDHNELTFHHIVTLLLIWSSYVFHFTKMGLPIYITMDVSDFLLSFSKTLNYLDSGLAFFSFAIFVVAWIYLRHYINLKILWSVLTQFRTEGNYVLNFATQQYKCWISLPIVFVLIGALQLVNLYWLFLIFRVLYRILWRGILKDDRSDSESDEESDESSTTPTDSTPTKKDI
T2 sequence (Q03579 1-150 partner): T1 sequence (Q03579 1-150 partner)
Text: in vitro CerS assay, TLC fluorescence of NBD-ceramide on Lac1 | Lag1 (Δlac1Δsur2) has a higher affinity towards PHS than Lac1 (Δlag1Δsur2) | We next determined the Km of Lag1 or Lac1 towards DHS and PHS

Row | Substance | Km (Lag1) | Km (Lac1)
1 | NBD–PHS | 30.5 ± 6.6 µM | 128 ± 52.5 µM
2 | NBD–DHS | 132 ± 29 µM | 165 ± 56 µM
